# Measured values from patent publication US11173173B2, “Methods for treating chemoresistant cancer-initiating cells” (UNIVERSITY OF CONNECTICUT, priority 2015, dated 2021).
# Experiment: Cardiotoxicity based on cardiac troponin I level and histology
# Assay type: in vivo
# Conditions: 1 mg/kg (8 doses) and high single dose
# Protocol: Data are presented as mean±SD (n=5) *P<0.05, **P<0.01. c provides cardiac Troponin I level after administration of free doxorubicin (DOX) and doxorubicin nanoparticles (DOX-NPs).
# The doxorubicin nanoparticles have an average particle diameter of 138 nm. […] The release of Dox in PBS was steady at approximately 2% per day, with 24% released in 12 days. […] Cardiotoxicity was tested based on cardiac troponin I level and histology.
structure (smiles),measurement,value
"COc1cccc2c1C(=O)c1c(O)c3c(c(O)c1C2=O)C[C@@](O)(C(=O)CO)C[C@@H]3O[C@H]1C[C@H](N)[C@H](O)[C@H](C)O1 [DXR, doxorubicin]",cardiotoxicity (cardiac troponin I level and histology),showed cardiotoxicity
